Measured values: publication PMC2943150 (Journal of medicinal chemistry, 2009)

Target: HIV-1 protease (Human immunodeficiency virus type 1 group M subtype B, UniProt P04585)
Experiment: HIV-1 protease enzyme inhibition, assay protocol of Toth and Marshall
Format: biochemical

Structure (SMILES) | Ki [nM]
COc1ccc2c(c1)OCCCCCCCN(C[C@@H](O)[C@H](Cc1ccccc1)NC(=O)O[C@H]1CO[C@H]3OCC[C@H]31)S2(=O)=O [Inhibitor 15d] | 0.08 ± 0.02
COc1ccc2c(c1)OCCCC/C=C\CN(C[C@@H](O)[C@H](Cc1ccccc1)NC(=O)O[C@H]1CO[C@H]3OCC[C@H]31)S2(=O)=O [Inhibitor 14e] | 0.017 ± 0.001
